Data reported in patent publication US10155764B2, “Therapeutic compounds and uses thereof” (GENENTECH, INC., priority 2014, dated 2018).
pIC50: −log10 of the molar value.

Biological target: PCAF719-832 bromodomain (Homo sapiens (Human), UniProt Q92831)
Assay: PCAF AlphaLisa binding assay
Conditions: PCAF bromodomain 225 nM, biotinylated small molecule ligand 6 nM
Method: PCAF bromodomain binding and inhibition of the compounds disclosed herein was assessed by monitoring the engagement of biotinylated small molecule ligand (known to bind to the PCAF bromodomain) with the target using the AlphaLisa technology (Perkin-Elmer).

Chain of PCAF719-832 bromodomain (Q92831 719-832): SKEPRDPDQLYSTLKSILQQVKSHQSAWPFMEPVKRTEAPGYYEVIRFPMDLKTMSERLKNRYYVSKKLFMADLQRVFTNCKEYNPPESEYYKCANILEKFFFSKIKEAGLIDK

First: CN(CCNc1nn(C)c(=O)c2ccccc12)C1COC1 [Example 51, 2-methyl-4-((2-(methyl(oxetan-3-yl)amino)ethyl)amino)phthalazin-1(2H)-one]
Second: CCN(CC)CCNc1nn(C)c(=O)c2ccccc12 [Example 23, 4-((2-(diethylamino)ethyl)amino)-2-methylphthalazin-1(2H)-one]
The pIC50 of the first is 0.48 log units higher: 6.10 for the first, 5.62 for the second. The first is the more potent here.

First: CN(C)C(CNc1nn(C)c(=O)c2c1CCC2)c1ccccc1 (racemic) [Example 37, 4-((2-(dimethylamino)-2-phenylethyl)amino)-2-methyl-2,5,6,7-tetrahydro-1H-cyclopenta[d]pyridazin-1-one]
Second: CN(C)C(CNc1nn(C)c(=O)c2c1CCCC2)c1ccccc1 (racemic) [Example 36, 4-((2-(dimethylamino)-2-phenylethyl)amino)-2-methyl-5,6,7,8-tetrahydrophthalazin-1(2H)-one]
The pIC50 of the first is 0.80 log units higher: 6.89 for the first, 6.09 for the second.

First: CN1CCN(CCNc2nn(C)c(=O)c3ccccc23)CC1 [Example 42, 2-methyl-4-((2-(4-methylpiperazin-1-yl)ethyl)amino)phthalazin-1(2H)-one]
Second: Cn1nc(NCCN2CCC2)c2ccccc2c1=O [Example 50, 4-((2-(azetidin-1-yl)ethyl)amino)-2-methylphthalazin-1(2H)-one]
The pIC50 of the first is 0.98 log units lower: 5.02 for the first, 6.00 for the second.

`COc1ccc([C@@H]([C@H](C)Nc2nn(C)c(=O)c3ccccc23)N(C)C)cn1` (single isomer, unassigned) [Example 62] and `C[C@H](Nc1nn(C)c(=O)c2ccccc12)[C@H](c1ccc(Oc2ccccn2)cc1)N(C)C` (single isomer, unassigned) [Example 80] are within 0.2 log units of each other in pIC50: 7.20 for the first, 7.34 for the second.

Compared with `CC[C@H](Nc1nn(C)c(=O)c2ccccc12)[C@H](c1ccccc1)N(C)C` (single isomer, unassigned) [Example 56], `Cc1cccc2c(N[C@H](C)[C@@H](c3ccccc3)N(C)C)nn(C)c(=O)c12` (single isomer, unassigned) [Example 69B] is 0.62 log units lower in pIC50: 7.39 for the first, 6.77 for the second. The first is the more potent here.

Compared with `CN(C)[C@H]1CCCC[C@@H]1Nc1nn(C)c(=O)c2cccnc12` (single isomer, unassigned) [Example 11B], `CN(C)[C@@H]1CCCC[C@H]1Nc1nn(C)c(=O)c2cccnc12` (single isomer, unassigned) [Example 11A] is higher in pIC50: less than 5.30 for the first, 6.74 for the second. The second is the more potent here.

Going from `C[C@H](Nc1nn(C)c(=O)c2cccnc12)[C@H](c1ccc(C(=O)N2CCOCC2)cc1)N(C)C` [Example 82, 8-(((1S,2S)-1-(dimethylamino)-1-(4-(morpholine-4-carbonyl)phenyl)propan-2-yl)amino)-6-methylpyrido[2,3-d]pyridazin-5(6H)-one] to `C[C@H](Nc1nn(C)c(=O)c2cccnc12)[C@H](c1ccc(S(=O)(=O)c2ccccc2)cc1)N(C)C` (single isomer, unassigned) [Example 74A], the pIC50 rises from 7.23 to 7.70 (0.47 log units). The second is the more potent here.

Compared with `CC(CN(C)C)Nc1nn(C)c(=O)c2cnccc12` (racemic) [Example 13, 1-((1-(dimethylamino)propan-2-yl)amino)-3-methylpyrido[3,4-d]pyridazin-4(3H)-one], `CN(C)CCSc1nn(C)c(=O)c2ccccc12` [Example 9, 4-((2-(dimethylamino)ethyl)thio)-2-methylphthalazin-1(2H)-one] is 0.77 log units lower in pIC50: 6.82 for the first, 6.05 for the second.

Going from `CN1CCC(Nc2nn(C)c(=O)c3ccccc23)C1` (racemic) [Example 44, 2-methyl-4-((1-methylpyrrolidin-3-yl)amino)phthalazin-1(2H)-one] to `C[C@@H](Nc1nn(C)c(=O)c2[nH]ccc12)[C@@H](c1ccccc1)N(C)C` (single isomer, unassigned) [Example 71B], the pIC50 rises from 6.59 to 7.08 (0.49 log units). The second is the more potent here.

In the case of `CC(Nc1nn(C)c(=O)c2cccnc12)C(c1ccc(S(=O)(=O)c2ccccc2)cc1)N(C)C` (single isomer, unassigned) [Example 74, 8-((1-(dimethylamino)-1-(4-(phenylsulfonyl)phenyl)propan-2-yl)amino)-6-methylpyrido[2,3-d]pyridazin-5(6H)-one], the pIC50 was 7.40.
